Data from patent publication US20120196892A1, “NOVEL CASPASE-2 INHIBITORS” (CHIESI FARMACEUTICI S.p.A., priority 2011, published 2012).

Legend:
[1] = molecular target: T1, human recombinant caspase-2 (Homo sapiens, UniProt P42575); details: disclosed in WO 2005/105829; cited from earlier work
T1 construct: purchased BIOMOL, Plymouth, Pa., USA
T1 sequence (P42575 170-325 limits assumed): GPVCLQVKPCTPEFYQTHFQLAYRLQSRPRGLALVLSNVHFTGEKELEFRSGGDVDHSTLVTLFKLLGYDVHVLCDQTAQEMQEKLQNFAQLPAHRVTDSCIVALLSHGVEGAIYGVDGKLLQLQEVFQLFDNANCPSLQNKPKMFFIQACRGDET
T1 sequence (P42575 348-452 limits assumed): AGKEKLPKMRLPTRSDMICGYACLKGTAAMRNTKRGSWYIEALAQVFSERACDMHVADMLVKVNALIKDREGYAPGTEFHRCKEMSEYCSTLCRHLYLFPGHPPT

[2] = molecular target: T1, human recombinant caspase-2; assay: in vitro caspase-2 inhibition activity (Ac-VDVAD-AMC fluorogenic substrate cleavage); format: biochemical; details: for IC50: 30 minutes pre-incubation with inhibitors 0.001 to 2 μM, 200 μM Ac-VDVAD-AMC, read after 2 hours at 37° C., mean of three independent runs, read-out: IC50 (concentration which inhibits 50% of caspase activity); for caspase-2 inhibition activity (in words), comparative compounds: compounds used for comparative purposes, structurally related to TRP601
Procedure: The in vitro caspase-2 inhibition activity of 2-quinolinylcarbonyl-(S)-Valinyl-(S)-Aspartyl (methyl ester)-(S)-Valinyl-(S)-Alanyl-(R,S)-Aspartyl (methyl ester) 2,3,5,6-tetrafluorophenyl ester (TRP 701) in comparison to other compounds was evaluated according to the following protocol. Samples of human recombinant caspase-2 (25-50U, BIOMOL, Plymouth, Pa., USA) were pre-incubated for 30 minutes with inhibitors (0.001 to 2 μM) in final 100 μl final assay buffer (50 mM HEPES, pH 7.4, 100 mM NaCI, 0.1% CHAPS, 10 mM DTT, 1 mM EDTA, 10% glycerol) and then mixed with 200 μM of the fluorogenic caspase substrates (BIOMOL) Ac-VDVAD-AMC. An IC50 value corresponding to the concentration which inhibis 50% of caspase activity was determined from the dose-response sigmoid curve using the steady-state fluorescence approach. The cleavage of AMC-based substrate by human recombinant caspase-2 was measured after 2 hours at 37° C. on a fluorescence microplate reader by monitoring emission at 510 nm upon excitation at 405 nm.
Curves are the mean of three independent runs.

Compound | caspase-2 selectivity (in words), background statement [1] | IC50 [2] | caspase-2 selectivity (in words) [2] | caspase-2 inhibition activity (in words), comparative compounds [2]
COC(=O)CC(NC(=O)[C@H](C)NC(=O)[C@@H](NC(=O)[C@H](CC(=O)OC)NC(=O)[C@@H](NC(=O)c1ccc2ccccc2n1)C(C)C)C(C)C)C(=O)COc1c(F)cccc1F (mixture of isomers) [TRP 601, 5-(2,6-difluoro-phenoxy)-3(R,S)-{2(S)-[2(S)-(3-methoxycarbonyl-2(S)-{3-methyl-2(S)-[(quinoline-2-carbonyl)-amino]butyrylamino}-propionylamino)-3-methyl-butyrylamino]-propionylamino}-4-oxo-pentanoic acid methyl ester] | selective caspase-2 inhibitor | 60 to 90 nM |  | 
COC(=O)CC(NC(=O)[C@H](C)NC(=O)[C@@H](NC(=O)[C@H](CC(=O)OC)NC(=O)[C@@H](NC(=O)c1ccc2ccccc2n1)C(C)C)C(C)C)C(=O)COc1c(F)c(F)cc(F)c1F (mixture of isomers) [TRP 701, 5-(2,3,5,6-tetrafluoro-phenoxy)-3(R,S)-{2(S)-[2(S)-(3-methoxycarbonyl-2(S)-{3-methyl-2(S)-[(quinoline-2-carbonyl)-amino]-butyrylamino}-propionylamino)-3-methyl-butyrylamino]-propionylamino}-4-oxo-pentanoic acid methyl ester] |  | 60 to 90 nM | selective caspase-2 inhibitor | 
CC(C)[C@H](NC(=O)c1ccc2ccccc2n1)C(=O)O [M3, 2-quinolinylcarbonyl-S-Valine] |  |  |  | inactive
quinoline-2-carbonyl-(S)-Val-(S)-Asp(OMe)-(S)-Val-(S)-Ala-(R,S)-Ala((R,S)-CH2OC6H3(2,6-F2)) [TRP 600] |  |  |  | inactive
